This is an account of results in patent US8080657B2, “Compounds of reverse turn mimetics and the use thereof” (Choongwae Pharma Corporation, priority 2008, dated 2011).

Each structure is given as a SMILES string.

The subject of the first assay is Wnt signaling. The experiment in a line: TopFlash reporter gene bioassay in SW480 cells. In kind it is cell-based. As to conditions: Homo sapiens, SW480, TopFlash reporter gene assay, inhibition of Wnt signaling; read-out: RGA, IC50 (μM) TopF.
As for `C=CCN1CC(=O)N2[C@@H](Cc3ccc4[nH]ncc4c3)C(=O)N(Cc3cccc4scnc34)C[C@@H]2N1C(=O)NCc1ccccc1` (racemic) [compound 237], the IC50 was 46.7 ± 6.13 µM.
Take `C=CCN1CC(=O)N2[C@@H](Cc3ccc(O)cc3)C(=O)N(Cc3cccc4c(C(=O)C5CC5)c[nH]c34)C[C@@H]2N1C(=O)NCc1ccccc1` [compound 4]: the IC50 was 0.14 ± 0.025 µM.
The same measure, in the same setting: to `C=CCN1CC(=O)N2[C@@H](Cc3ccc(O)cc3)C(=O)N(Cc3ccccc3-n3cnnn3)C[C@@H]2N1C(=O)NCc1ccccc1` [compound 164] belongs 15.7 ± 3.22 µM.
On to `C=CCN1CC(=O)N2[C@@H](Cc3ccc(O)cc3)C(=O)N(Cc3cccc(Oc4ccccc4)c3)C[C@@H]2N1C(=O)NCc1ccccc1` [compound 146], for which the IC50 was 1.99 ± 0.12 µM.
Take `C=CCN1CC(=O)N2[C@@H](Cc3ccc(O)cc3)C(=O)N(Cc3csc4ccc([N+](=O)[O-])cc34)C[C@@H]2N1C(=O)NCc1ccccc1` [compound 32]: the IC50 is 0.56 ± 0.07 µM.
On to `C=CCN1CC(=O)N2[C@@H](Cc3ccc(O)cc3)C(=O)N(Cc3cccc(-c4ccccc4OC)c3)C[C@@H]2N1C(=O)NCc1ccccc1` [compound 127], for which the IC50 turned out to be 1.61 ± 0.31 µM.
For the compound `C=CCN1CC(=O)N2[C@@H](Cc3ccc(O)cc3)C(=O)N(Cc3csc4ccc(N(Cc5ccccc5)Cc5ccccc5)cc34)C[C@@H]2N1C(=O)NCc1ccccc1` [compound 200], the IC50 was determined as 25.9 ± 4.72 µM.
Consider `C=CCN1CC(=O)N2[C@@H](Cc3ccc(O)cc3)C(=O)N(Cc3cccc4c3OC(F)(F)O4)C[C@@H]2N1C(=O)NCc1ccccc1` [compound 124], for which the IC50 turned out to be 1.56 ± 0.33 µM.
The same measure, in the same setting: in the case of `C=CCN1CC(=O)N2[C@@H](Cc3ccc(O)cc3)C(=O)N(Cc3cccc(C(=O)NCCOC)c3)C[C@@H]2N1C(=O)NCc1ccccc1` [compound 91] it was 1.04 ± 0.18 µM; in that of `C=CCN1CC(=O)N2[C@@H](Cc3ccc(O)cc3)C(=O)N(Cc3ccc(OCCC)cc3)C[C@@H]2N1C(=O)NCc1ccccc1` [compound 247], 6.66 ± 0.88 µM; in that of `C=CCN1CC(=O)N2[C@@H](Cc3ccc(O)cc3)C(=O)N(Cc3cccc(N(C)C=O)c3)C[C@@H]2N1C(=O)NCc1ccccc1` [compound 113], 1.41 ± 0.38 µM.
Still for that read-out and setting: to `C=CCN1CC(=O)N2[C@@H](Cc3ccc(O)cc3)C(=O)N(Cc3ccc(OC)c(-c4cccnc4)c3)C[C@@H]2N1C(=O)NCc1ccccc1` [compound 208] belongs 3.27 ± 0.8 µM; to `C=CCN1CC(=O)N2[C@@H](Cc3ccc(O)cc3)C(=O)N(Cc3cccc(OC)c3OCCN3CCCCC3)C[C@@H]2N1C(=O)NCc1ccccc1` [compound 173], 2.26 ± 0.16 µM; to `C=CCN1CC(=O)N2[C@@H](Cc3ccc(O)cc3)C(=O)N(Cc3cccnc3N3CCC(N4CCCC4)CC3)C[C@@H]2N1C(=O)NCc1ccccc1` [compound 199], 25.9 ± 3.38 µM.
Same read-out and setting: in the case of `C=CCN1CC(=O)N2C(CN(Cc3cccc(-c4ccc(SC)cc4)n3)C(=O)[C@@H]2Cc2ccc(O)cc2)N1C(=O)NCc1ccccc1` (some centres unmarked) [compound 179] it was 2.42 ± 0.32 µM.
In the case of `C=CCN1CC(=O)N2[C@@H](Cc3ccc(O)cc3)C(=O)N(Cc3cccc(C(=O)O)c3)C[C@@H]2N1C(=O)NCc1ccc(Cl)cc1Cl` [compound 119], the IC50 was found to be 1.51 ± 0.16 µM.
Still for that read-out and setting: in the case of `C=CCOc1c(CN2C[C@H]3N(C(=O)CN(CC=C)N3C(=O)NCc3ccccc3)[C@@H](Cc3ccc(O)cc3)C2=O)cccc1C(C)(C)C` [compound 143] it was 1.93 ± 0.18 µM.
In the case of `C=CCN1CC(=O)N2[C@@H](Cc3ccc(O)cc3)C(=O)N(Cc3csc4cc(NCCC(C)(C)C)ccc34)C[C@@H]2N1C(=O)NCc1ccccc1` [compound 51], the IC50 turned out to be 0.72 ± 0.15 µM.
The same measure, in the same setting: in the case of `C=CCN1CC(=O)N2C(Cc3ccc(O)cc3)C(=O)N(Cc3cccc(-c4ccccn4)c3)C[C@@H]2N1C(=O)NCc1ccccc1` (some centres unmarked) [compound 61] it was 0.8 ± 0.07 µM.
For the compound `C=CCN1CC(=O)N2[C@@H](Cc3ccc(O)cc3)C(=O)N(Cc3cc4c(cc3[N+](=O)[O-])OCO4)C[C@@H]2N1C(=O)NCc1ccccc1` [compound 244], the IC50 was found to be 5.98 ± 1.03 µM.
Still for that read-out and setting: to `C=CCN1CC(=O)N2[C@@H](Cc3ccc(O)cc3)C(=O)N(Cc3cccc(-c4ccccc4)n3)C[C@@H]2N1C(=O)NCc1ccccc1` [compound 186] belongs 2.66 ± 0.74 µM.
For the compound `C=CCN1CC(=O)N2[C@@H](Cc3ccc(O)cc3)C(=O)N(C/C=C/c3ccccc3)C[C@@H]2N1C(=O)NCc1ccccc1` [compound 149], the IC50 came to 10.1 ± 2.38 µM.
Same read-out and setting: in the case of `C=CCN1CC(=O)N2[C@@H](Cc3ccc(O)cc3)C(=O)N(Cc3cn(CCC)c4ccccc34)C[C@@H]2N1C(=O)NCc1ccccc1` [compound 159] it was 14.1 ± 2.3 µM.
The same measure, in the same setting: to `C=CCN1CC(=O)N2[C@@H](Cc3ccc(O)cc3)C(=O)N(Cc3ccc(F)c(OCCN4CCOCC4)c3)C[C@@H]2N1C(=O)NCc1ccccc1` [compound 70] belongs 0.9 ± 0.2 µM; to `C=CCN1CC(=O)N2[C@@H](Cc3ccc(O)cc3)C(=O)N(Cc3cccc(C(=O)Nc4cc[nH]n4)c3)C[C@@H]2N1C(=O)NCc1ccccc1` [compound 260], 8.43 ± 2.07 µM.
Same read-out and setting: to `C=CCN1CC(=O)N2[C@@H](Cc3ccc(O)cc3)C(=O)N(Cc3cccc(C#N)c3)C[C@@H]2N1C(=O)NCc1ccccc1` [compound 132] belongs 1.71 ± 0.28 µM.
For `C=CCN1CC(=O)N2[C@@H](Cc3ccc(O)cc3)C(=O)N(Cc3cccc(-c4cccc(OC)c4)n3)C[C@@H]2N1C(=O)NCc1ccccc1` [compound 218], the IC50 stood at 3.96 ± 0.93 µM.
With `C=CCN1CC(=O)N2[C@@H](Cc3ccc(O)cc3)C(=O)N(Cc3cccnc3-c3cccnc3)C[C@@H]2N1C(=O)NCc1ccccc1` [compound 198], the IC50 was found to be 22.2 ± 5.69 µM.
`C=CCN1CC(=O)N2[C@@H](Cc3ccc(O)cc3)C(=O)N(Cc3cccnc3-c3ccccc3OC)C[C@@H]2N1C(=O)NCc1ccccc1` [compound 165]: the IC50 turned out to be 17.2 ± 4.11 µM.
As for `C=CCN1CC(=O)N2[C@@H](Cc3ccc(O)cc3)C(=O)N(Cc3cccc(N(C)C(=O)OC)c3)C[C@@H]2N1C(=O)NCc1ccccc1` [compound 109], the IC50 was found to be 1.35 ± 0.15 µM.
Same read-out and setting: in the case of `C=CCN1CC(=O)N2[C@@H](Cc3ccc(OS(=O)(=O)NC(=O)OCCN(C)C)cc3)C(=O)N(Cc3cccc4c(C(=O)C5CC5)c[nH]c34)C[C@@H]2N1C(=O)NCc1ccccc1` [compound 220] it was 33.1 ± 4.07 µM; in that of `C=CCN1CC(=O)N2[C@@H](Cc3ccc(O)cc3)C(=O)N(Cc3cccc(NC(C)=O)c3)C[C@@H]2N1C(=O)NCc1ccccc1` [compound 102], 1.25 ± 0.21 µM; in that of `C=CCN1CC(=O)N2[C@@H](Cc3ccc(O)cc3)C(=O)N(Cc3cccc(C(=O)NO)c3)C[C@@H]2N1C(=O)NCc1ccccc1` [compound 265], 9.3 ± 0.53 µM.
On the same count and under the same terms, to `C=CCN1CC(=O)N2[C@@H](Cc3ccc(O)cc3)C(=O)N(Cc3cccc(C(N)=O)c3)C[C@@H]2N1C(=O)NCc1ccccc1` [compound 207] belongs 3.25 ± 0.41 µM.
Still for that read-out and setting: to `C=CCN1CC(=O)N2[C@@H](Cc3ccc(O)cc3)C(=O)N(Cc3ccccc3N)C[C@@H]2N1C(=O)NCc1ccccc1` [compound 78] belongs 0.95 ± 0.15 µM.
With `C=CCN1CC(=O)N2[C@@H](Cc3ccc(O)cc3)C(=O)N(Cc3cn(-c4cccc(F)c4)c4ccccc34)C[C@@H]2N1C(=O)NCc1ccccc1` [compound 166], the IC50 worked out at 17.5 ± 5.57 µM.

The same assay, now with this note: Homo sapiens, SW480; read-out: RGA, IC50 (μM) TopF.
For the compound `C=CCOc1ccc(CN2C[C@H]3N(C(=O)CN(CC=C)N3C(=O)NCc3ccccc3)[C@@H](Cc3ccc(OP(=O)(O)O)cc3)C2=O)cc1` [compound 136], the IC50 was determined as 1.83 ± 0.32 µM.
Still for that read-out and setting: to `C=CCN1CC(=O)N2[C@@H](Cc3ccc(OP(=O)(O)O)cc3)C(=O)N(Cc3cccc4c3oc3ccccc34)C[C@@H]2N1C(=O)NCc1ccccc1` [compound 13] belongs 0.36 ± 0.13 µM.

The IC50 is the concentration needed to halve the response being measured.
